Experimental data reported in patent US6784137B2, “6-aryl-4-aminopicolinates and their use as herbicides” (Dow AgroSciences LLC, priority 2001, dated 2004).

Tests used:
[1] = test system: Barnyardgrass (Echinochloa crus-galli); test: Postemergence herbicidal activity, greenhouse spray; type: in vivo; settings: Echinochloa crus-galli, post-emergence, 336 h, visual score after 2 weeks, read-out: Post-emergent % control ECHCG; for pest or weed control at 250 ppm / pest or weed control at 500 ppm: Table 1; for pest or weed control at 250 ppm: rate 250 ppm; for pest or weed control at 500 ppm: rate 500 ppm; for pest or weed control at 125 ppm: Table 2, rate 125 ppm
Procedure, shortened: (§1)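 Seedlings were raised under greenhouse conditions for 7-21 days and used at the first or second true leaf stage. Each was sprayed evenly with about 1.5 mL of test solution by atomizer at […]. Treated pots then returned to the greenhouse, watered from below to avoid wash-off.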

[2] = test system: Cocklebur (Xanthium strumarium); test: as above; type: in vivo; settings: Xanthium strumarium, post-emergence, 336 h, visual score after 2 weeks, read-out: Post-emergent % control XANST; for pest or weed control at 250 ppm / pest or weed control at 500 ppm: Table 1; for pest or weed control at 250 ppm: rate 250 ppm; for pest or weed control at 500 ppm: rate 500 ppm, 0 no injury, 100 complete kill; for pest or weed control at 125 ppm: Table 2, rate 125 ppm
Procedure, shortened: as §1

[3] = test system: Lambsquarter (Chenopodium album); test: as above; type: in vivo; settings: Chenopodium album, post-emergence, 336 h, visual score after 2 weeks, read-out: Post-emergent % control CHEAL; for pest or weed control at 250 ppm / pest or weed control at 500 ppm: Table 1; for pest or weed control at 250 ppm: rate 250 ppm; for pest or weed control at 500 ppm: rate 500 ppm; for pest or weed control at 125 ppm: Table 2, rate 125 ppm
Procedure, shortened: as §1

[4] = test system: Yellow nutsedge (Cyperus esculentus); test: as above; type: in vivo; settings: Cyperus, post-emergence, 336 h, visual score after 2 weeks, read-out: Post-emergent % control CYPES; for pest or weed control at 250 ppm / pest or weed control at 500 ppm: Table 1; for pest or weed control at 250 ppm: rate 250 ppm; for pest or weed control at 500 ppm: rate 500 ppm; for pest or weed control at 125 ppm: Table 2, rate 125 ppm
Procedure, shortened: as §1

[5] = test system: Crabgrass(large) (Digitaria sanguinalis); test: Preemergence herbicidal activity, soil spray; type: in vivo; settings: Digitaria sanguinalis, pre-emergence, 504 h, Table 5, visual score after 3 weeks, read-out: Pre-emergent % control DIGSA; for pest or weed control at 560 ppm: rate 560 ppm; for pest or weed control at 140 ppm: rate 140 ppm
Procedure, shortened: (§2)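 After seeding into loam:sand (70 to 30), pots received a uniform soil-surface spray of the compound, diluted serially from 97:3 acetone:dimethyl sulfoxide stocks with aqueous 0.1% Tween 155; carrier-sprayed pots served as controls. Plants grew under greenhouse conditions of about 23-29° C by day and 22-28° C by night.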

[6] = test system: Giant Foxtail (Setaria faberi); test: Preemergence herbicidal activity, soil spray; type: in vivo; settings: Setaria faberi, pre-emergence, 504 h, Table 5, visual score after 3 weeks, read-out: Pre-emergent % control SETFA; for pest or weed control at 560 ppm: rate 560 ppm; for pest or weed control at 140 ppm: rate 140 ppm
Procedure, shortened: as §2

[7] = test system: Lambsquarter (Chenopodium album); test: Preemergence herbicidal activity, soil spray; type: in vivo; settings: Chenopodium album, pre-emergence, 504 h, Table 5, visual score after 3 weeks, read-out: Pre-emergent % control CHEAL; for pest or weed control at 560 ppm: rate 560 ppm, 100 complete kill or no germination; for pest or weed control at 140 ppm: rate 140 ppm
Procedure, shortened: as §2

[8] = test system: Pigweed (redroot) (Amaranthus retroflexus); test: Preemergence herbicidal activity, soil spray; type: in vivo; settings: Amaranthus retroflexus, pre-emergence, 504 h, Table 5, visual score after 3 weeks, read-out: Pre-emergent % control AMARE; for pest or weed control at 560 ppm: rate 560 ppm; for pest or weed control at 140 ppm: rate 140 ppm
Procedure, shortened: as §2

melting point | Structure (SMILES) | pest or weed control at 250 ppm [1] | pest or weed control at 250 ppm [2] | pest or weed control at 250 ppm [3] | pest or weed control at 250 ppm [4] | pest or weed control at 560 ppm [5] | pest or weed control at 560 ppm [6] | pest or weed control at 560 ppm [7] | pest or weed control at 560 ppm [8] | pest or weed control at 500 ppm [1] | pest or weed control at 500 ppm [2] | pest or weed control at 500 ppm [3] | pest or weed control at 500 ppm [4] | pest or weed control at 125 ppm [1] | pest or weed control at 125 ppm [2] | pest or weed control at 125 ppm [3] | pest or weed control at 140 ppm [5] | pest or weed control at 140 ppm [6] | pest or weed control at 140 ppm [7] | pest or weed control at 140 ppm [8] | also measured
154 to 155 °C | Nc1c(F)c(-c2ccc(Cl)cc2F)nc(C(=O)O)c1Cl [Compound 189, 4-Amino-3-chloro-5-fluoro-6-(4-chloro-2-fluorophenyl)pyridine-2-carboxylic acid] | – | – | – | – | – | – | – | – | – | – | – | – | 90% | 90% | 90% | 100% | 100% | 100% | 100% | pest or weed control at 125 ppm [4]: 90%
183 to 184 °C | Nc1cc(-c2ccc(F)c(Cl)c2)nc(C(=O)O)c1Cl [Compound 151, 4-Amino-3-chloro-6-(3-chloro-4-fluorophenyl)pyridine-2-carboxylic acid] | – | – | – | – | – | – | – | – | 100% | 100% | 100% | 85% | 85% | 100% | 100% | 100% | 100% | 100% | 100% | pest or weed control at 125 ppm [4]: 90%
152 °C | CCc1ccc(-c2cc(N)c(Cl)c(C(=O)O)n2)cc1 [Compound 175, 4-Amino-3-chloro-6-(4-ethylphenyl)pyridine-2-carboxylic acid] | – | – | – | – | – | – | – | – | 80% | 100% | 99% | 0% | – | – | – | 100% | 95% | 100% | 95% | –
132 °C | COC(=O)c1nc(-c2ccc(Cl)cc2)cc(N)c1Cl [Compound 19, Methyl 4-amino-3-chloro-6-(4-chlorophenyl)pyridine-2-carboxylate] | 80% | 100% | 95% | 90% | 100% | 100% | 100% | 100% | – | – | – | – | – | – | – | – | – | – | – | –

Second part, the molecule before the results:

Structure (SMILES) | melting point | pest or weed control at 250 ppm [1] | pest or weed control at 250 ppm [2] | pest or weed control at 250 ppm [3] | pest or weed control at 250 ppm [4] | pest or weed control at 560 ppm [5] | pest or weed control at 560 ppm [6] | pest or weed control at 560 ppm [7] | pest or weed control at 560 ppm [8] | pest or weed control at 500 ppm [1] | pest or weed control at 500 ppm [2] | pest or weed control at 500 ppm [3] | pest or weed control at 500 ppm [4] | pest or weed control at 125 ppm [1] | pest or weed control at 125 ppm [2] | pest or weed control at 125 ppm [3] | pest or weed control at 140 ppm [5] | pest or weed control at 140 ppm [6] | pest or weed control at 140 ppm [7] | pest or weed control at 140 ppm [8] | also measured
COC(=O)c1nc(-c2cccc(Cl)c2)cc(N)c1Cl [Compound 27, Methyl 4-amino-3-chloro-6-(3-chlorophenyl)pyridine-2-carboxylate] | 141 °C | 70% | 95% | 95% | 60% | 100% | 100% | 100% | 100% | – | – | – | – | – | – | – | – | – | – | – | –
COC(=O)c1nc(-c2ccc(Cl)cc2)c(F)c(N)c1F [Compound 90, Methyl 4-amino-3,5-difluoro-6-(4-chlorophenyl)pyridine-2-carboxylate] | 165 to 166 °C | – | – | – | – | 100% | 100% | 100% | 100% | 98% | 100% | 100% | 90% | – | – | – | – | – | – | – | –
COc1ccccc1-c1cc(N)c(Cl)c(C(=O)O)n1 [Compound 139, 4-Amino-3-chloro-6-(2-methoxyphenyl)pyridine-2-carboxylic acid] | 177 to 179 °C | 70% | 100% | 95% | 30% | 100% | 100% | 100% | 100% | – | – | – | – | – | – | – | – | – | – | – | –
Nc1c(Cl)c(C(=O)O)nc(-c2ccc(Cl)cc2)c1Cl [Compound 198, 4-Amino-3,5-dichloro-6-(4-chlorophenyl)pyridine-2-carboxylic acid] | 164 to 165 °C | – | – | – | – | 80% | 90% | 100% | 100% | 90% | 100% | 100% | 90% | 70% | 100% | 100% | – | – | – | – | pest or weed control at 125 ppm [4]: 98%
Nc1cc(-c2cccc(Cl)c2)nc(C(=O)O)c1Cl [Compound 143, 4-Amino-3-chloro-6-(3-chlorophenyl)pyridine-2-carboxylic acid] | 171 °C | – | – | – | – | 100% | 100% | 100% | 100% | 70% | 100% | 100% | 40% | – | – | – | – | – | – | – | –
Nc1cc(-c2ccc(Cl)c(Cl)c2)nc(C(=O)O)c1Cl [Compound 150, 4-Amino-3-chloro-6-(3,4-dichlorophenyl)pyridine-2-carboxylic acid] | 185 to 186 °C | – | – | – | – | – | – | – | – | 95% | 100% | 100% | 95% | – | – | – | 90% | 100% | 100% | 100% | –
Nc1c(F)c(-c2ccc3c(c2)CCO3)nc(C(=O)O)c1Cl [Compound 197, 4-Amino-3-chloro-5-fluoro-6-(2,3-dihydro-5-benzofuranyl)pyridine-2-carboxylic acid] | 171 °C | 90% | 100% | 100% | 95% | 100% | 100% | 100% | 100% | – | – | – | – | 85% | 100% | 100% | – | – | – | – | pest or weed control at 125 ppm [4]: 85%
COc1ccc(-c2cc(N)c(Cl)c(C(=O)O)n2)cc1 [Compound 141, 4-Amino-3-chloro-6-(4-methoxyphenyl)pyridine-2-carboxylic acid] | 192 °C | 80% | 100% | 100% | 10% | 60% | 70% | 100% | 98% | – | – | – | – | – | – | – | – | – | – | – | –
Cc1cc(-c2cc(N)c(Cl)c(C(=O)O)n2)ccc1Cl [Compound 149, 4-Amino-3-chloro-6-(4-chloro-3-methylphenyl)pyridine-2-carboxylic acid] | 190 to 191 °C | – | – | – | – | – | – | – | – | 95% | 100% | 100% | 100% | – | – | – | 100% | 100% | 100% | 100% | –
